Bridge positions count the residues as written; N and C are the ends. Square brackets hold non-standard residues; d marks the D form. Peptide text beside a SMILES is read from it. * marks the point of attachment. Ileψ(thiazoline)Cys = CC[C@H](C)[C@H](N)C1=N[C@H](C(=O)*)CS1; dOrn = NCCC[C@@H](N)C(=O)O

The test system of assay [1] is Kibdelosporangium philippinensis (cultures A80407 and A80407.4). Description: Resistance to antibiotics of the producing cultures, antibiotic sensitivity discs on seeded ISP No. 2 agar. The settings on record: 10 units; both cultures.
For assay [2] the test system is unchanged. The assay can be described thus: Lysozyme resistance of the producing cultures. The assay is classed as cell-based. The settings on record: both cultures. From the text: Methods recommended by Gordon et.al. [R. E. Gordon, D. A. Barnett, J. E. Handerhan, and C. H. Pang, "Nocardia coeliaca, Nocardia autotrophica, and the Nocardin Strain," Int. J. Syst. Bacteriol. 24, (1), 54-63 (1974)] were followed for the majority of physiological tests.

On to `CC[C@H](C)[C@H](N)C1=N[C@H](C(=O)N[C@@H](CC(C)C)C(=O)N[C@H](CCC(=O)O)C(=O)N[C@H](C(=O)N[C@H]2CCCCNC(=O)[C@H](CC(N)=O)NC(=O)[C@@H](CC(=O)O)NC(=O)[C@H](Cc3cnc[nH]3)NC(=O)[C@@H](Cc3ccccc3)NC(=O)[C@H]([C@@H](C)CC)NC(=O)[C@@H](CCCN)NC2=O)[C@@H](C)CC)CS1` [bacitracin] ({Ileψ(thiazoline)Cys}-L[dE]IK[dOrn]I[dF]H[dD]N; lactam 4-C), for which the Resistance to antibiotics result in assay [1] was “sensitive”.

With lysozyme, the Resistance to lysozyme entry in assay [2] was “Neither culture was resistant”.

Values taken from patent US5213797A, “A80407 antibiotics” (Eli Lilly and Company, priority 1990, dated 1993).
